Test [1] concerns the target Saccharomyces cerevisiae α-glucosidase (E.C 3.2.1.20). The test can be described thus: Alpha-glucosidase inhibition assay. It counts as biochemical. Particulars: 0.2 U/mL enzyme, 5.0 mM pNPG, pH 6.9 sodium phosphate buffer, 37 °C, triplicate; read-out: Alpha-glucosidase inhibitory activity IC50. On the procedure: The alpha-glucosidase (0.2 U/mL) and substrate (5.0 mM pNPG) were dissolved in 100 mM pH 6.9 sodium phosphate buffer. The inhibitor (50 µL) was preincubated with alpha-glucosidase at 37 °C for 20 min, and then the substrate (40 µL) was added to the reaction mixture. The enzymatic reaction was carried out at 37 °C for 20 min and stopped by adding 0.2 M Na2CO3 (130 μL). Enzymatic activity was quantified by measuring absorbance at 405 nm (CLARIOstar plus, BMG LABTECH, Ortenberg, Germany). All samples were analyzed in triplicate at five different concentrations around the IC50 values, and the mean values were retained. The inhibition percentage (%) was calculated by the following equation:Inhibition (%) = [1 − (Asample/Acontrol)] × 100.(1)

In another test the test system is alpha-glucosidase. The test can be described thus: Inhibitory type assay of 3 on alpha-glucosidase (Lineweaver–Burk plots, secondary plots). It counts as biochemical, yeast. On the procedure:
In order to examine the inhibition mechanism of 3, their activity was measured at the different concentration of 4-nitrophenyl […] (pNPG).
The mechanisms of inhibition of alpha-glucosidase by 3 were determined by Lineweaver–Burk plots (Microsoft Excel 2010, Redmond, WA, USA), using methods similar to those reported in the literature. Enzyme inhibition due to various concentrations of the 3 were evaluated by monitoring the effects of different concentrations of the substrate. For Lineweaver–Burk double reciprocal plots 1/enzyme velocity (1/V) vs. 1/substrate concentration (1/[S]), the inhibition type was determined using various concentrations of pNPG (1 mM, 2 mM, and 4 mM) as a substrate in the presence of different concentrations of the test compound (0, 13.8, 27.7, and 55.5 µM). The experiments were carried out in three replicates. The mixtures were incubated at 37 °C and the optical density was measured at 405 nm every 1 min for 30 min with the Clariostar Labtech microplate reader (Ortenberg, Germany). Optimal concentrations of the tested compound were chosen based on the IC50 value. The inhibition constants were obtained graphically from secondary plots (Microsoft Excel 2010, Redmond, WA, USA).

In the case of `CC(=O)O[C@H]1CC[C@@]2(C)C3C[C@@H]4CC[C@@]3(CC[C@@H]2C1(C)C)C[C@@]4(O)CO` (single isomer, unassigned; ent-3) [Compound 4, ent-3α-acetoxy-16β,17-dihydroxyatisane], the IC50 (usually the concentration that inhibits the measured activity by half) in test [1] worked out at 102 µM.
Still for that read-out and setting: with `CC(=O)OC1C(C)C(=O)C23CC(C)C(O)C2(C=C(C)C(O)C(O)C2C1C2(C)C)O3` (centres unmarked) [Compound 7, ingol 12-acetate] the figure was 115 µM.
With `CC1(C)C(=O)CC[C@@]2(C)[C@H]1CC[C@@]13C[C@H](CC[C@@H]12)[C@@](O)(CO)C3` [Compound 6, calliterpenone], in test [1], the IC50 is 156 µM.
In the case of `CC1(C)OC[C@@]2(C[C@]34CC[C@H]2C[C@H]3[C@]2(C)CCC(=O)C(C)(C)[C@H]2CC4)O1` [Compound 3, ent-atisane-3-oxo-16β,17-acetonide], in test [1], the IC50 came out at 69.6 µM. Further, the inhibition type entry with alpha-glucosidase (Lineweaver–Burk plots, Vmax decreased while Km remained constant) is given as “noncompetitive inhibitor”. In addition, the Ki (in general, a measure of affinity in units of concentration, obtained from inhibition or displacement) on alpha-glucosidase (pNPG 1, 2, 4 mM, inhibitor 0, 13.8, 27.7, 55.5 µM, secondary plot of slope vs. inhibitor concentration, read-out: inhibition constant (Ki)) was 65.8 µM.
Consider `CC1(C)C(O)CC(O)C2(C)C3CC4CCC3(CCC12)CC4(O)CO` (single isomer, unassigned; ent-1) [Compound 1, ent-1α,3α,16β,17-tetrahydroxyatisane], for which the IC50 in test [1] stood at 125 µM.
For `CCOC(=O)CC[C@]1(C)[C@@H](C(C)(C)O)CC[C@@]23CC[C@@H](C[C@H]21)[C@](O)(CO)C3` (single isomer, unassigned; ent-3) [Compound 2, ethyl ent-3,4-seco-4,16β,17-trihydroxyatisane-3-carboxylate], in test [1], the IC50 was determined as 131 µM.

Source of the values: article PMC8069799, “Alpha-Glucosidase Inhibitory Diterpenes from Euphorbia antiquorum Growing in Vietnam” (Molecules, 2021).
